Structures are written as SMILES. Counter-ions that a name gives are not always drawn.

This passage reports Emax results from patent US8916549B2, “Thienooxazepine derivative” (Takeda Pharmaceutical Company Limited, priority 2009, dated 2014).

For this test, the target named is serotonin 5-HT2C receptor (isoform type VSV, stably expressing CHO cell) (Homo sapiens, UniProt P28335, I156V/I160V/N158S). The experiment in a line: cell-based. Conditions: read-out: ratio to maximum response by 5-HT (1 μM).
Sequence of serotonin 5-HT2C receptor (isoform type VSV, stably expressing CHO cell) (P28335 33-458 I156V/N158S/I160V limits assumed): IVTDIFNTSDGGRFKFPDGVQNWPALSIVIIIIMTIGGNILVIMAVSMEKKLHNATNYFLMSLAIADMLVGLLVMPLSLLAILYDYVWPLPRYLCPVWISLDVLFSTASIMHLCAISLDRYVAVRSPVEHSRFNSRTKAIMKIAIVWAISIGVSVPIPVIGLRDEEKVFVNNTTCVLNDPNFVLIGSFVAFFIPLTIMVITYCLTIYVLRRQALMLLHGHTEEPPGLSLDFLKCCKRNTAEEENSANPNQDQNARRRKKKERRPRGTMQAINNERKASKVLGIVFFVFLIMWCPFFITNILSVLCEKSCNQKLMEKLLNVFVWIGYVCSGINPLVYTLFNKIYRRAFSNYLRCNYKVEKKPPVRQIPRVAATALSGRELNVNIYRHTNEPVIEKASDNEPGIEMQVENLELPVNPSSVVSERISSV

For `CC(c1csc2c1OCCNC2)C(F)(F)F` (stereo not drawn) [Example 20, 8-(2,2,2-trifluoro-1-methylethyl)-2,3,4,5-tetrahydrothieno[2,3-f][1,4]oxazepine 1 hydrochloride], the Emax was determined as 85%.

In the case of `CC(C)c1csc2c1O[C@@H](C)CNC2` [Example 15, (2S)-2-methyl-8-(1-methylethyl)-2,3,4,5-tetrahydrothieno[2,3-f][1,4]oxazepine 1 hydrochloride], the Emax turned out to be 96%.

As to `c1sc2c(c1C1CCC1)OCCNC2` [Example 5, 8-cyclobutyl-2,3,4,5-tetrahydrothieno[2,3-f][1,4]oxazepine 1 hydrochloride], the Emax worked out at 107%.

For the compound `CC(c1csc2c1O[C@@H](C)CNC2)C(F)(F)F` (stereo partly drawn) [Example 21, (2S)-2-methyl-8-(2,2,2-trifluoro-1-methylethyl)-2,3,4,5-tetrahydrothieno[2,3-f][1,4]oxazepine 1 hydrochloride], the Emax was found to be 94%.

Regarding `C[C@H]1CNCc2scc(-c3cccc(F)c3)c2O1` [Example 12, (2S)-8-(3-fluorophenyl)-2-methyl-2,3,4,5-tetrahydrothieno[2,3-f][1,4]oxazepine 1 hydrochloride], the Emax was 101%.

As to `Fc1cccc(-c2csc3c2OCCNC3)c1` [Example 2, 8-(3-fluorophenyl)-2,3,4,5-tetrahydrothieno[2,3-f][1,4]oxazepine 1 hydrochloride], the Emax was determined as 101%.

Turning to `c1sc2c(c1C1CC1)OCCNC2` [Example 3, 8-cyclopropyl-2,3,4,5-tetrahydrothieno[2,3-f][1,4]oxazepine 1 hydrochloride], the Emax is 98%.

`CCCc1csc2c1O[C@@H](C)CNC2` [Example 16, (2S)-2-methyl-8-propyl-2,3,4,5-tetrahydrothieno[2,3-f][1,4]oxazepine 1 hydrochloride]: the Emax was found to be 97%.

For the compound `CC(C)c1csc2c1OCCNC2` [Example 4, 8-(1-methylethyl)-2,3,4,5-tetrahydrothieno[2,3-f][1,4]oxazepine 1 hydrochloride], the Emax worked out at 99%.

`COc1cccc(-c2csc3c2OC(C)CNC3)c1` (stereo not drawn) [Example 6, 8-(3-methoxyphenyl)-2-methyl-2,3,4,5-tetrahydrothieno[2,3-f][1,4]oxazepine 1 hydrochloride]: the Emax came out at 97%.

Consider `C[C@H]1CNCc2scc(C3CC3)c2O1` [Example 14, (2S)-8-cyclopropyl-2-methyl-2,3,4,5-tetrahydrothieno[2,3-f][1,4]oxazepine 1 hydrochloride], for which the Emax turned out to be 100%.

Turning to `Cc1sc2c(c1C1CC1)OCCNC2` [Example 17, 8-cyclopropyl-7-methyl-2,3,4,5-tetrahydrothieno[2,3-f][1,4]oxazepine 1 hydrochloride], the Emax came out at 91%.
